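Growth conditions: 96-well plates. Treatment: test compound, 48 hours, 5 concentrations. Analysis: linear interpolation between bracketing concentrations; unreached endpoints set to highest concentration. GI50 = concentration required for 50% inhibition of growth.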 Active and inactive are the calls of the source. Rule as the data show it: active = GI50 up to about 1.1 µM and inactive = higher.
What was measured:
Assay in all cases: NCI anticancer screen, dose series, 48 h
KM12 = tested on: KM12
RPMI-8226 = tested on: RPMI-8226
NCI-H226 = tested on: NCI-H226
PC-3 = tested on: PC-3
NCI-H522 = tested on: NCI-H522
K562 = tested on: K562
SF-268 = tested on: SF-268
T47D = tested on: T47D
CCRF-CEM = tested on: CCRF-CEM
OVCAR-3 = tested on: OVCAR-3
MDA-MB-435 = tested on: MDA-MB-435
A498 = tested on: A498
SN12C = tested on: SN12C
NCI-H460 = tested on: NCI-H460
OVCAR-5 = tested on: OVCAR-5
MDA-MB-231 = tested on: MDA-MB-231
786-0 = tested on: 786-0
IGROV-1 = tested on: IGROV-1
EKVX = tested on: EKVX

Measured: GI50

O=C(c1cccc(OCc2ccccc2)c1OCc1ccccc1)N1CCSC1=S
inactive: KM12 5.13 µM | RPMI-8226 8.38 µM | NCI-H226 23.8 µM | PC-3 21 µM | NCI-H522 12.3 µM | K562 9.35 µM | SF-268 11.9 µM | T47D 5.66 µM | CCRF-CEM 5.05 µM | OVCAR-3 21.1 µM | MDA-MB-435 27.2 µM | A498 16.5 µM | SN12C 19.5 µM | NCI-H460 28 µM | OVCAR-5 71.3 µM | MDA-MB-231 19.8 µM | 786-0 42.8 µM | IGROV-1 28.6 µM | EKVX 37.8 µM

NC(=O)N/N=C1\CC2C3CC4C2C4C13 (configuration not stated)
inactive: KM12 > 100 µM | RPMI-8226 > 100 µM | NCI-H226 > 100 µM | PC-3 > 100 µM | NCI-H522 > 100 µM | K562 > 100 µM | SF-268 > 100 µM | T47D > 100 µM | CCRF-CEM > 100 µM | OVCAR-3 > 100 µM | MDA-MB-435 > 100 µM | A498 > 100 µM | SN12C > 100 µM | NCI-H460 > 100 µM | OVCAR-5 > 100 µM | MDA-MB-231 > 100 µM | 786-0 > 100 µM | IGROV-1 > 100 µM | EKVX > 100 µM

Cc1ccc2c(c1C)CC1(Cc3c(ccc4c3CCC4)C1=O)C2=O (configuration not stated)
inactive: KM12 > 100 µM | RPMI-8226 > 100 µM | NCI-H226 > 100 µM | PC-3 62.2 µM | NCI-H522 > 100 µM | K562 > 100 µM | SF-268 > 100 µM | T47D > 100 µM | CCRF-CEM > 100 µM | OVCAR-3 65.9 µM | MDA-MB-435 46.3 µM | A498 > 100 µM | SN12C > 100 µM | NCI-H460 > 100 µM | OVCAR-5 > 100 µM | MDA-MB-231 > 100 µM | 786-0 > 100 µM | IGROV-1 > 100 µM | EKVX > 100 µM

OC(c1nc2ccccc2s1)(C(F)(F)F)C(F)(F)F
inactive: KM12 > 100 µM | RPMI-8226 > 100 µM | NCI-H226 > 100 µM | PC-3 > 100 µM | NCI-H522 > 100 µM | K562 > 100 µM | SF-268 > 100 µM | T47D > 100 µM | CCRF-CEM > 100 µM | OVCAR-3 > 100 µM | MDA-MB-435 > 100 µM | A498 > 100 µM | SN12C > 100 µM | NCI-H460 > 100 µM | OVCAR-5 > 100 µM | MDA-MB-231 > 100 µM | 786-0 > 100 µM | IGROV-1 > 100 µM | EKVX > 100 µM

O=S(=O)(O)CCSSCCS(=O)(=O)O
inactive: KM12 > 1000 µM | RPMI-8226 > 1000 µM | NCI-H226 > 1000 µM | PC-3 > 1000 µM | NCI-H522 > 1000 µM | K562 > 1000 µM | SF-268 > 1000 µM | T47D > 1000 µM | CCRF-CEM > 1000 µM | OVCAR-3 > 1000 µM | MDA-MB-435 > 1000 µM | A498 > 1000 µM | SN12C > 1000 µM | NCI-H460 > 1000 µM | OVCAR-5 > 1000 µM | MDA-MB-231 > 1000 µM | 786-0 > 1000 µM | IGROV-1 > 1000 µM | EKVX > 1000 µM

CC(=O)O[C@@H]1C(C2CCCCC2)C=[N+]([O-])O[C@@H]1OC1CCCC1(c1ccccc1)c1ccccc1 (some centres not stated)
inactive: KM12 8.04 µM | RPMI-8226 2.58 µM | NCI-H226 16.6 µM | PC-3 9.59 µM | NCI-H522 2.07 µM | K562 3.61 µM | SF-268 7.4 µM | T47D 2.45 µM | CCRF-CEM 2.63 µM | OVCAR-3 2.7 µM | MDA-MB-435 3.06 µM | A498 7.41 µM | SN12C 9.23 µM | NCI-H460 13.3 µM | OVCAR-5 15.8 µM | MDA-MB-231 8.45 µM | 786-0 3.76 µM | IGROV-1 3.21 µM | EKVX 15.7 µM

C[N+]1(CCCC[N+]2(C)CCCCCCC2)CCCCCCC1
inactive: KM12 > 100 µM | RPMI-8226 > 100 µM | NCI-H226 > 100 µM | PC-3 > 100 µM | NCI-H522 > 100 µM | K562 > 100 µM | SF-268 > 100 µM | T47D > 100 µM | CCRF-CEM > 100 µM | OVCAR-3 > 100 µM | MDA-MB-435 > 100 µM | A498 > 100 µM | SN12C > 100 µM | NCI-H460 > 100 µM | OVCAR-5 > 100 µM | MDA-MB-231 > 100 µM | 786-0 > 100 µM | IGROV-1 > 100 µM | EKVX > 100 µM

O=S(=O)(N/C(=N\O)Nc1ccc(Cl)cc1)c1cc(S(=O)(=O)c2ccccc2)cs1
inactive: KM12 22.2 µM | RPMI-8226 7.87 µM | NCI-H226 28.6 µM | PC-3 15 µM | NCI-H522 10.6 µM | K562 10.4 µM | SF-268 11.5 µM | T47D 11.6 µM | CCRF-CEM 11.2 µM | OVCAR-3 13.5 µM | MDA-MB-435 13.8 µM | A498 13.8 µM | SN12C 15.2 µM | NCI-H460 17.7 µM | OVCAR-5 16.5 µM | MDA-MB-231 20.3 µM | 786-0 15.7 µM | IGROV-1 17.9 µM | EKVX 16.3 µM
